Patent US20140128472A1, “TREATMENT AND PREVENTION OF DISEASES RELATED TO OXIDATIVE STRESS” (UNIVERSITY OF PÉCS, priority 2011, published 2014)
“Also recorded” adds a separate entry of the source.

Columns and labels:
[1] = Example p-Tyr treatment regimen in a patient (hsCRP, serum insulin, plasma glucose); assay type: in vivo, human
Description: As a further example, a patient attends medical control with a complaint of high blood pressure and increased stress at regular daily work in the last month. In this situation they relate an increased intake of coffein and sugar. Their high sensitivity C-reactive protein (hsCRP) level is measured as well as their serum insulin, and plasma glucose level.

[2] = system: thoracic and abdominal aorta, renal and femoral arteries; assay: Insulin-induced relaxation of isolated arterial segments after oral tyrosine isomer supplementation of rats; parameters: species or system Sprague-Dawley rats; settings: proposed experiment: sustained in vivo supplementation with o-Tyr and p-Tyr together
[3] = system: Akt (protein kinase B); assay: Insulin-induced phosphorylation of Akt in 3T3-L1 adipocytes (Western blot); assay type: cell-based, mouse
Description: (§1) Primary cultures of mouse embryo fibroblasts (3T3-L1) were purchased from ATCC (Manassas, US). Early passages of 3T3-L1 fibroblasts were cultured in Dulbecco's modified Eagle medium ((DMEM, Invitrogen, CAT number: 41966-029; Sigma Aldrich CAT number: D6046) supplemented with 10% Fetal Bovine Serum (Gibco, CAT number: 16170-078), 100 U/ml penicillin and 0.1 mg/ml streptomycin (Gibco, CAT number: 15070-063) and 398 nM p-, m-, or o-Tyr. DMEM contained 25 or 5 mM glucose (depending on the experiment), L-glutamine, and pyruvate. Cells were grown in a humidified incubator at 37° C. and 5% CO2. Differentiation medium consisted of DMEM supplemented with 10% Fetal Bovine Serum (FBS, Gibco, Csertex, Budapest, Hungary, CAT number: 10106-169) (FBS), to which a cocktail was added containing […] isobuthylmethylxanthine (Sigma Aldrich, CAT number: I 5879), 0.17 nM insulin (Sigma Aldrich, CAT number: I 9278) and 250 nM dexamethasone (Sigma Aldrich, CAT number: 861871). From Day 4 onward, cells were maintained in DMEM/10% FBS containing 1.5 pg/ml insulin with a media change every other day until experimental treatments were initiated. For all treatments, cells were incubated overnight in serum-deprived medium after 90% of the cell population reached the adipocyte phenotype.
Following the treatment cells were washed twice with Saline (4° C.) to remove any trace of the medium, then exposed to 80 μL lysis buffer/plate, containing 1.15% Triton X, 1M Trisbase, pH 7.4, 0.5 M EDTA, pH 8, 0.2 M EGTA, pH 7, 0.1 M dithiothreitol (DTT), 5 mg/ml phenylmethylsulfonyl fluoride (PMSF), 0.1 M Na3VO4, 5 mg/ml leupeptin, 5 mg/ml aprotinin, Phoshatase Inhibitor Coctail 1 and 2 (Sigma Aldrich, CAT number: P2850 and P5726). Adypocytes were scraped off mechanically and then frozen at −70° C.
The samples of EC lysates were sonicated (2 min) and centrifuged (10 min, 13,000 rpm, at 4° C.). Protein content of samples was determined by the Bradford method using bovine serum albumin as a standard Bio-Rad Benchmark Plus. Samples were solubilized in a buffer of 100 mM Tris-HCl (pH 6.8), 4.0% sodium dodecyl sulphate (SDS), 20% glycerol, 200 mM DTT, and 0.2% bromophenol blue. […]
Membranes were incubated overnight with the immunoglobulin G (IgG) monoclonal antibodies diluted to 1:1000 in TBS-T (0.1%), containing 5% bovine serum (BS). […] Blots were detected using enhanced chemiluminescence (ECL; Pierce Biotech, Bio-Rad, Budapest, Hungary). Computerized densitometry (integrated optical density) of the specific bands was analyzed with Scion Image for Windows Software. […]

[4] = system: 3T3-L1 adipocytes; assay: Erythropoietin-dependent uptake of deoxy-D-glucose into 3T3-L1 adipocytes; assay type: cell-based, mouse; settings: 5 mM glucose; various concentrations of EPO
Description: as §1, with “From Day 4 onward, cells were maintained in DMEM/10% FBS containing 1.5 pg/ml insulin with a media change every other day until experimental treatments were initiated. For all treatments, cells were incubated overnight in serum-deprived medium after 90% of the cell population reached the adipocyte phenotype.” left out
[…] The sediment was dissolved in 70 μl of lysis-buffer and glucose uptake was assessed by scintillation counting measuring 30 μl of the sample with a Beckman LS 5000 TD counter in counts per minute (CPM) for five minutes each, using an average activity as the outcome. Samples were frozen overnight at −70° C. and protein concentration was measured using a Hitachi spectrophotometer. […]

[5] = system: Akt (PKB); assay: Erythropoietin-dependent phosphorylation of Akt (PKB) in 3T3-L1 adipocytes (Western blot); assay type: cell-based, mouse; settings: 25 mM glucose; various concentrations of erythropoietin

Structure (SMILES)	hsCRP, serum insulin and plasma glucose level ([1]; p-Tyr 3 g daily (three times 1 g), after a month)	hsCRP, serum insulin and plasma glucose level ([1]; p-Tyr therapy continued, after a further month)	Diminished response to insulin in isolated arterial segments [2]	Insulin-induced Akt phosphorylation ([3]; cells grown on high glucose media with p-Tyr only)	Increase in Akt (protein kinase B) phosphorylation by insulin compared to controls ([3]; cells grown on p-Tyr and low glucose, increasing doses of insulin) [fold]	EPO-induced glucose uptake compared to the para-Tyr control [4]	EPO-dependent Akt phosphorylation [5]	Insulin-induced Akt phosphorylation ([3]; cells grown on m-Tyr or o-Tyr, insulin 200 and 400 nmol/l)
N[C@@H](Cc1ccc(O)cc1)C(=O)O [p-Tyr, Para-L-tyrosine]	somewhat diminished	returned to the medium normal range	reversed	significantly lower Akt-phosphorylation	3	–	–	–
N[C@@H](Cc1ccccc1O)C(=O)O [o-Tyr, Ortho-L-tyrosine]	–	–	–	–	–	inhibited	inhibited the normal increase in the Akt phosphorylation	inhibited the insulin-induced Akt-phosphorylation; also recorded: could not be significantly enhanced by insulin
